Measurements: ChEMBL document CHEMBL3886463, “Triazolopyridine compounds” (2016)
pIC50: −log10 of the molar value.

Biological target: cAMP and cAMP-inhibited cGMP 3',5'-cyclic phosphodiesterase 10A (Homo sapiens, UniProt Q9Y233)
Test: Inhibition Assay: The human PDE10A full length assay was performed in 96-well micro titer plates. The reaction mixture of 50 ul contained 20 mM HEPES pH=7.5/10 mM MgCl2/0.05 mg/ml BSA (Sigma cat. # A-7906), 50 nM cGMP (Sigma, cat. # G6129) and 50 nM [3H]-cGMP (GE Healthcare, cat. # TRK392 S.A. 13.2 Ci/mmol), 3.75 ng/well PDE10A enzyme (Enzo Life Science, Lausen, Switzerland cat # SE-534) with or without a specific test compound. A range of concentrations of the potential inhibitor was used to generate data for calculating the concentration of inhibitor resulting in 50% of the effect (e.g. IC50, the concentration of the competitor inhibiting PDE10A activity by 50%). Non-specific activity was tested without the enzyme. The reaction was initiated by the addition of the substrate solution (cGMP and [3H]-cGMP) and allowed to progress for 20 minutes at room temperature. The reaction was terminated by adding 25 ul of YSi-SPA scintillation beads (GE Healthcare, cat. # RPNQ0150) in 18 mM zinc sulphate.

cAMP and cAMP-inhibited cGMP 3',5'-cyclic phosphodiesterase 10A, sequence (Q9Y233 whole entry): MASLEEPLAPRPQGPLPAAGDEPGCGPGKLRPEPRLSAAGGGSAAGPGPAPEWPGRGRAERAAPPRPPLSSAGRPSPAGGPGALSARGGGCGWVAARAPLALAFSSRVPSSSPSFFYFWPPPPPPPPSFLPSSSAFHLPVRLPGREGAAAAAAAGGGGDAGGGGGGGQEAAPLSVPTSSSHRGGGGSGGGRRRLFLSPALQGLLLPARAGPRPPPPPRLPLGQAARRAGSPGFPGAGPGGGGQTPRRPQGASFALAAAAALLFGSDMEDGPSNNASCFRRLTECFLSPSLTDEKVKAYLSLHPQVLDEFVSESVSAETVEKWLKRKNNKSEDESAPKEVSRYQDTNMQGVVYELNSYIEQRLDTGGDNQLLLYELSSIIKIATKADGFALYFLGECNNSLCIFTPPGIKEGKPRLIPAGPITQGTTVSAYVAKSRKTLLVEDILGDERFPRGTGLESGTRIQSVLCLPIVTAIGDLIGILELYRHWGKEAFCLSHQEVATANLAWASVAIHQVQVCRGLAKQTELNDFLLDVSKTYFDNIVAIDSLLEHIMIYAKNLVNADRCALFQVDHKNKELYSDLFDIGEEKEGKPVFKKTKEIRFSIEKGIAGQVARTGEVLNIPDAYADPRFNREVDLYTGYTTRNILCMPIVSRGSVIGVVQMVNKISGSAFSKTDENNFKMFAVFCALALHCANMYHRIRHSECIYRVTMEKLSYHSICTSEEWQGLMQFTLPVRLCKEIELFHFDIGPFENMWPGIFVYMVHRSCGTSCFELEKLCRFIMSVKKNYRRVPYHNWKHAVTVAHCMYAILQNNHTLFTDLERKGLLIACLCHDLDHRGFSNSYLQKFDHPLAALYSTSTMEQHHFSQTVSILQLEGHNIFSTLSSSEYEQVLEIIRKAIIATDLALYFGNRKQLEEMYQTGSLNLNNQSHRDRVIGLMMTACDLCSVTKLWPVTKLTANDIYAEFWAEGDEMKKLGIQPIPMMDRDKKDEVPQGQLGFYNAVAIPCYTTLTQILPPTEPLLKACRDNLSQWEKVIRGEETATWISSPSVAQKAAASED

Row | SMILES | pIC50
1 | Cn1ncc(C(=O)N2CCC2)c1C(=O)Nc1ccc2nc(N3CCOCC3)nn2c1 | 7.64
2 | CCN(CC)c1nc2ccc(NC(=O)c3c(C(=O)N4CCCC4)cnn3C)cn2n1 | 8.48
